According to ChEMBL document CHEMBL5465560, “Selectivity Literature for EUbOPEN Chemogenomic Library” (2024):
Each block holds one compound with its values, some of them ahead of it.

Legend:
[1] = target: Dual specificity protein kinase CLK2 (Homo sapiens, UniProt P49760); conditions: at 10 µM
[2] = target: Transient receptor potential cation channel subfamily M member 6 (Homo sapiens) (UniProt Q9BX84); test: Selectivity interaction (KinomeScan (DiscoverX)) EUB0000655a TRPM6; conditions: at 10 µM
[3] = target: Tyrosine-protein kinase ABL1 (Homo sapiens, UniProt P00519); test: Selectivity interaction (KinomeScan (DiscoverX)) EUB0001079a ABL1; conditions: at 1 µM
[4] = target: T1, Casein kinase I isoform alpha-like (Homo sapiens) (UniProt Q8N752); test: Selectivity interaction (KinomeScan (DiscoverX)) EUB0000607a CSNK1A1L; conditions: at 10 µM
T1 sequence (whole entry): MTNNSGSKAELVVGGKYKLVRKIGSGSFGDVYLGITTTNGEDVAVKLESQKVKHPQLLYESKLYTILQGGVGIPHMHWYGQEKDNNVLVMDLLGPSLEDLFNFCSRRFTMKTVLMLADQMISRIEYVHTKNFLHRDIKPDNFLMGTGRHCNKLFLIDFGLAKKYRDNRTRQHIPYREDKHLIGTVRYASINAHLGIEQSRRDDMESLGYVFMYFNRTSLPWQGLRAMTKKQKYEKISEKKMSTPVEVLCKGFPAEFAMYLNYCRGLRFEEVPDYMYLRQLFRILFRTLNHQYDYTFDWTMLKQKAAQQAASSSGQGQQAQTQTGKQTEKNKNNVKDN

[5] = target: Protein kinase C delta type (Homo sapiens) (UniProt Q05655); test: Selectivity interaction (KinomeScan (DiscoverX)) EUB0000595a PRKCD; conditions: at 10 µM
[6] = target: T2, Serine/threonine-protein kinase Sgk3 (Homo sapiens) (UniProt Q96BR1); test: Selectivity interaction (Kinase panel (KiNativ target engagement assay in Jurkat cells)) EUB0001635a SGK3; assay type: cell-based; conditions: at 1 µM
T2 sequence (whole entry): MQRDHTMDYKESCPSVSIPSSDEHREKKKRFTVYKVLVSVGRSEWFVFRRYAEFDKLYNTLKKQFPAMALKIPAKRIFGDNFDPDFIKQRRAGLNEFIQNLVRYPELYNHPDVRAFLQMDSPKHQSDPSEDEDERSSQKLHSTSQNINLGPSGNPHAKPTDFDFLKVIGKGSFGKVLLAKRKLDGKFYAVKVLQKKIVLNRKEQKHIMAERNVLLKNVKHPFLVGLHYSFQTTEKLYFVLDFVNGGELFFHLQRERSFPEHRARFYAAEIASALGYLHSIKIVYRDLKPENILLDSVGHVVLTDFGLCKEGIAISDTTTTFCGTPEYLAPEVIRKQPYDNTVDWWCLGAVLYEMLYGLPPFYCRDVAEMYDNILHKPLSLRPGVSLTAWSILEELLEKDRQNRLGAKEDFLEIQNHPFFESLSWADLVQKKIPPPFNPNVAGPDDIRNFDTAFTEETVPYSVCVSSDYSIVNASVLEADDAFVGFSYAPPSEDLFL

[7] = target: T3, Peregrin (Homo sapiens) (UniProt P55201); test: Selectivity interaction (Bromodomain panel (DSF asssay)) EUB0000270b BRPF1
T3 sequence (whole entry): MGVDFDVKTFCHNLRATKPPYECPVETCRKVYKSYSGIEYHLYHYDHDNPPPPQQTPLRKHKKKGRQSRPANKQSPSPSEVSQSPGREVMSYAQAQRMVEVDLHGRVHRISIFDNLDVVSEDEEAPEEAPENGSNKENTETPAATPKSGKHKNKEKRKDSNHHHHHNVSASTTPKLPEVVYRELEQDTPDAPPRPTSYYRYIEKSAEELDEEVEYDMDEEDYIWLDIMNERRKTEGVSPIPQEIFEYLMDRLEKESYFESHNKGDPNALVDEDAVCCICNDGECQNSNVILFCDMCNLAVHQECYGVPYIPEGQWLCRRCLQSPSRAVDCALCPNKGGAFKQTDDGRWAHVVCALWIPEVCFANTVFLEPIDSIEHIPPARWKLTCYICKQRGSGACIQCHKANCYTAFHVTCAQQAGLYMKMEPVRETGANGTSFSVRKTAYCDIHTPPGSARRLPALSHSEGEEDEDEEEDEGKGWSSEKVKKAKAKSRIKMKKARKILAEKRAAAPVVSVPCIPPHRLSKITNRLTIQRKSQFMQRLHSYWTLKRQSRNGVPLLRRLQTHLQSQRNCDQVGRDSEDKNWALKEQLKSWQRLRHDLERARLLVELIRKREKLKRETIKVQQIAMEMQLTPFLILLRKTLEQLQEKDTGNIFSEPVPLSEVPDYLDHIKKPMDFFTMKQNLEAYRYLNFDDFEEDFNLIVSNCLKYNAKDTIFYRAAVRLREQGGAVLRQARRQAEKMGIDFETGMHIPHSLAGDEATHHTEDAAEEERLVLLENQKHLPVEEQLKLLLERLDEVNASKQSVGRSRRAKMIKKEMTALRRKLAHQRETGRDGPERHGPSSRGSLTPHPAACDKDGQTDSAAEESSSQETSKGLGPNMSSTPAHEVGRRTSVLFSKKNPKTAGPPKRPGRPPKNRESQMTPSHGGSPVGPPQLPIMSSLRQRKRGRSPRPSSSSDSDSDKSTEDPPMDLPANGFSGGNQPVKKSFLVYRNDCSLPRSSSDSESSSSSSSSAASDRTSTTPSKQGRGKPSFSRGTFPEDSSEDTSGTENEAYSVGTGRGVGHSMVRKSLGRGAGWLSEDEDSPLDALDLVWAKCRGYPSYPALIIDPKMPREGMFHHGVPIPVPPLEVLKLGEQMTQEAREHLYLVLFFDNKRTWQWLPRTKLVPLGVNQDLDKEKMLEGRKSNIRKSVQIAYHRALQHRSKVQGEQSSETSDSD

[8] = target: Calcium/calmodulin-dependent protein kinase type II subunit delta (Homo sapiens) (UniProt Q13557); test: Selectivity interaction (ProQinase) EUB0000171b CAMK2D
[9] = target: Mitogen-activated protein kinase kinase kinase 9 (Homo sapiens) (UniProt P80192); test: Selectivity interaction (KinomeScan (DiscoverX)) EUB0001049a MAP3K9; conditions: at 1 µM
Sequence of Mitogen-activated protein kinase kinase kinase 9 (Homo sapiens) (P80192 whole entry, looked up): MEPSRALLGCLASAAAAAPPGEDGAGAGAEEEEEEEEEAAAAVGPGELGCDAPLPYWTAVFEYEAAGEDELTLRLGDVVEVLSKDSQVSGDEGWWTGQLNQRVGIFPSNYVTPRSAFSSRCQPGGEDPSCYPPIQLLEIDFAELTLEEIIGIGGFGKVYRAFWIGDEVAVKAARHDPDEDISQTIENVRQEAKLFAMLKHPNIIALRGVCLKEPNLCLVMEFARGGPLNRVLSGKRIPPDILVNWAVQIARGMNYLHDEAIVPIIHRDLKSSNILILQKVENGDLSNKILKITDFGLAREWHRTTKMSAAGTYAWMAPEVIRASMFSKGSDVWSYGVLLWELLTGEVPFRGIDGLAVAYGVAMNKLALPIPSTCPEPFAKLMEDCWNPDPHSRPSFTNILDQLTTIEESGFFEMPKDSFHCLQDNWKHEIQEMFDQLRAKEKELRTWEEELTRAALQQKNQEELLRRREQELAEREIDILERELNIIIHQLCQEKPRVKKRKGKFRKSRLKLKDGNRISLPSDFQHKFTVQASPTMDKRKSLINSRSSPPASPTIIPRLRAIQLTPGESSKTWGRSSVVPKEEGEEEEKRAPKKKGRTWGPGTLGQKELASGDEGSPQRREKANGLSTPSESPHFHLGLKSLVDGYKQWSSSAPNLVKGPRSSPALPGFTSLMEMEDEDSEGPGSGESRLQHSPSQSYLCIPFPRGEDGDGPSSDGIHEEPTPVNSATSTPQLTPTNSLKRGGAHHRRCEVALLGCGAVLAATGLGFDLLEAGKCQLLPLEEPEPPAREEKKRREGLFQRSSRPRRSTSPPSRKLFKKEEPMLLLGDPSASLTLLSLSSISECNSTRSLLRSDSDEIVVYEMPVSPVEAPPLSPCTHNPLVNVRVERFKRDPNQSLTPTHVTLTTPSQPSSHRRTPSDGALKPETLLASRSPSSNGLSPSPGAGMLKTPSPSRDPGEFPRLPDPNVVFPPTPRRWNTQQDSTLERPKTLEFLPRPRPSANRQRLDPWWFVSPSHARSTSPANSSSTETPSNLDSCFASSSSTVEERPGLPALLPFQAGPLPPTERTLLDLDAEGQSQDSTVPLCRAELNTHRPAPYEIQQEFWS

Sequence of Calcium/calmodulin-dependent protein kinase type II subunit delta (Homo sapiens) (Q13557 whole entry): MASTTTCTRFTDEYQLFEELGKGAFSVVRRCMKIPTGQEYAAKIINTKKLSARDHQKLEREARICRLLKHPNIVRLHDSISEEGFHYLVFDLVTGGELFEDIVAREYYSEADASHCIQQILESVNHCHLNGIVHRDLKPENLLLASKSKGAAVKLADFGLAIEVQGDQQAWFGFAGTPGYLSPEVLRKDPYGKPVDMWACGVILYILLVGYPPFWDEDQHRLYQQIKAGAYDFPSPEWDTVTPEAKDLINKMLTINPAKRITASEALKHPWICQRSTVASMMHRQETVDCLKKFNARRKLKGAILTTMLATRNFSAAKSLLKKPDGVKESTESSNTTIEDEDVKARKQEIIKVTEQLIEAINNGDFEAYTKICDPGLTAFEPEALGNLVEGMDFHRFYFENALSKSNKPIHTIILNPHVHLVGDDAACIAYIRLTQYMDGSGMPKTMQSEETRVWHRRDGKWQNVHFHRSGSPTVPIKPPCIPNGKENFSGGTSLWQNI
Sequence of Tyrosine-protein kinase ABL1 (P00519 whole entry, canonical isoform): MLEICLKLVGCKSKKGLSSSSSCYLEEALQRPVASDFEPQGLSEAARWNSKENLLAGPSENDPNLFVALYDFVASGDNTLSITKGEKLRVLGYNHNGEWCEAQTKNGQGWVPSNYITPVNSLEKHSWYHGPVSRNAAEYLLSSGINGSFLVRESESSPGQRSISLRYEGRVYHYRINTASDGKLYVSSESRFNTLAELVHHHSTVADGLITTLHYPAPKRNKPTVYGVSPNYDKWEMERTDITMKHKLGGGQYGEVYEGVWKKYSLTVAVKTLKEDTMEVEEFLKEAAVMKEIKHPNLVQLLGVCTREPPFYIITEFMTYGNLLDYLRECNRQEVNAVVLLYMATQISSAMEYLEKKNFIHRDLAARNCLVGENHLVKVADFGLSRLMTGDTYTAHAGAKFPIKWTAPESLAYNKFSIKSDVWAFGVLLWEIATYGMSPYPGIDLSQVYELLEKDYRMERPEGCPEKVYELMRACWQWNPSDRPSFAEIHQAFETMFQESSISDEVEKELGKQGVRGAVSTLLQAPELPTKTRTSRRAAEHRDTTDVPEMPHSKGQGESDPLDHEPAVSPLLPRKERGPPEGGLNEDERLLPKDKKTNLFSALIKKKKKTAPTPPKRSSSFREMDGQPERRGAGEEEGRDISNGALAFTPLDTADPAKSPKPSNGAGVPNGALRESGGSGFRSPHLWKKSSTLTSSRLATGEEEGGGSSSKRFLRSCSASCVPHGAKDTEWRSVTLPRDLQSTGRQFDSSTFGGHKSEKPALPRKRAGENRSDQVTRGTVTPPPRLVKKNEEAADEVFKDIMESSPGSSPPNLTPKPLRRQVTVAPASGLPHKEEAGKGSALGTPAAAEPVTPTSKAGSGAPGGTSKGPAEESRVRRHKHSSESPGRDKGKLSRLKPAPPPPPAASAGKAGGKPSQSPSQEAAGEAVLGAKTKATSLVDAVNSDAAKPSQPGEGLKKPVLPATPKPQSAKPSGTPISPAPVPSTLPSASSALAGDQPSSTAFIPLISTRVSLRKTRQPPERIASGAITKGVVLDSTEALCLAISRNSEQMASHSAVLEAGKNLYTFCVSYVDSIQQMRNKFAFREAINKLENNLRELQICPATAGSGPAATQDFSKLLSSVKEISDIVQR
Sequence of Protein kinase C delta type (Homo sapiens) (Q05655 whole entry, looked up): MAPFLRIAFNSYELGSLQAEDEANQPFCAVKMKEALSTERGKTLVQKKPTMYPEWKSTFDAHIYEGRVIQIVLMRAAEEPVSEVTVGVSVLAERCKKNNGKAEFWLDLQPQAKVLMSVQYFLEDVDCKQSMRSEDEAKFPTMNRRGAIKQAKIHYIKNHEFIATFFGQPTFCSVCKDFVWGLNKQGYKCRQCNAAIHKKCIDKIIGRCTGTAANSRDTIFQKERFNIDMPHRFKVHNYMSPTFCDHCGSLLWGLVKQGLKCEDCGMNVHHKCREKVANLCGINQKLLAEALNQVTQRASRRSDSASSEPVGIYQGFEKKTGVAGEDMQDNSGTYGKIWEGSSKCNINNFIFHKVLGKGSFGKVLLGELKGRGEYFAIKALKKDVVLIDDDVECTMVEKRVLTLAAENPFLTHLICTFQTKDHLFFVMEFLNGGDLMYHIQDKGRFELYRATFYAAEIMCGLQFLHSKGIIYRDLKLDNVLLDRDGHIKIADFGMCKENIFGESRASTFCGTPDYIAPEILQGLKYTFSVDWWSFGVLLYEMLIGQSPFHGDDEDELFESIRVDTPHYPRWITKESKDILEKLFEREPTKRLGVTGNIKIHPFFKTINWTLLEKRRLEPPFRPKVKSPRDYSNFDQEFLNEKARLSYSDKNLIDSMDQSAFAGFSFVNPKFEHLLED
Sequence of Dual specificity protein kinase CLK2 (P49760 whole entry, looked up): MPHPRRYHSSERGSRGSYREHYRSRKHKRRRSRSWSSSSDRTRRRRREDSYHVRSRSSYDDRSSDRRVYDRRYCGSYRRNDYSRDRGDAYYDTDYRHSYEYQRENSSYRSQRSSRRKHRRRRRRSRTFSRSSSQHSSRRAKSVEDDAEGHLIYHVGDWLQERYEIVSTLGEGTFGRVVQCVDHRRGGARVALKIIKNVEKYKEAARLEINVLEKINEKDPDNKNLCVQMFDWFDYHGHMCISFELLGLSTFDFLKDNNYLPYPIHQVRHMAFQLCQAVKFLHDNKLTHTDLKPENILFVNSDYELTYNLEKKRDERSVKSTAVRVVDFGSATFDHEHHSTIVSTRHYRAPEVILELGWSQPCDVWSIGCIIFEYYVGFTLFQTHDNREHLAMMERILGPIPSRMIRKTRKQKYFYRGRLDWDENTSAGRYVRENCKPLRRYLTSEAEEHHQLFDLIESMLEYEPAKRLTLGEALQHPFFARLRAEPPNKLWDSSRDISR

% of control [1]: 100%
Compound: CCN(CC)CCCCNc1ncc2cc(-c3cc(OC)cc(OC)c3)c(NC(=O)NC(C)(C)C)nc2n1

Compound: CN(C)CCOc1ccc(-c2nc(-c3ccncc3)c(-c3ccc4c(c3)CC/C4=N\O)[nH]2)cc1
% of control [2]: 100%

Compound: Nc1cnc(N2CCc3cc(S(=O)(=O)Nc4c(F)cc(Cl)cc4F)cc(N4CCCC4=O)c32)nc1 [TP-020n]
% of control [3]: 97%

Compound: CNC(=O)Nc1ccc(-c2nc(N3CC4CCC(C3)O4)c3cnn(C4CCC5(CC4)OCCO5)c3n2)cc1
% of control [4]: 100%

Compound: COCC(=O)NC/C=C/c1ccc2ncnc(Nc3ccc(Oc4ccc(C)nc4)c(C)c3)c2c1 [CP-724714]
% of control [5]: 87%

Compound: C=CC(=O)Nc1ccc(C(=O)Nc2[nH]nc3c2CN(C(=O)N[C@H](CN(C)C)c2ccccc2)C3(C)C)cc1
% of engagement ([6]; Selectivity number of off-targets 0.0, Selectivity number of targets 233.0, Source Knowledge https://www.sciencedirect.com/science/article/pii/S2451945619300674?via%3Dihub): 15.8% | % of engagement [6]: 6.4%

dTM [7]: -1.75 K
Compound: Cc1cc(CN)cc(C)c1-c1ncn(C)c1-c1cncn1C

% of control ([8]; at 1 µM): 95% | % of control ([8]; at 5 µM): 92%
Compound: C=CC(=O)Nc1cccc(C(=O)Nc2ccc(Nc3cc(-c4[nH]c(SC)nc4C)ccn3)cc2)c1

Compound: COc1cc(Nc2nc(C)cc(-c3cnn4nc(OC)ccc34)n2)cc(C(F)(F)F)c1
% of control [9]: 96%
